# Data from patent publication US20100324075A1, “THERAPEUTIC USE OF CARBOXYL ESTER LIPASE INHIBITORS” (UNIVERSITY OF CINCINNATI, priority 2007, published 2010).
# Legend:
# CEL [1] = biological target: T1, CEL (Homo sapiens, UniProt P19835); assay: Serum HDL, LDL and VLDL cholesterol in a patient with suboptimal HDL given a CEL inhibitor; type: in vivo; conditions: daily oral dose 1 mg per kg, two weeks
# T1 construct: The patient takes a daily oral dose of 1 mg per kg body of weight; from tissue; host or cells: whole organism: patient (endogenous enzyme)
# T1 sequence (P19835 21-753): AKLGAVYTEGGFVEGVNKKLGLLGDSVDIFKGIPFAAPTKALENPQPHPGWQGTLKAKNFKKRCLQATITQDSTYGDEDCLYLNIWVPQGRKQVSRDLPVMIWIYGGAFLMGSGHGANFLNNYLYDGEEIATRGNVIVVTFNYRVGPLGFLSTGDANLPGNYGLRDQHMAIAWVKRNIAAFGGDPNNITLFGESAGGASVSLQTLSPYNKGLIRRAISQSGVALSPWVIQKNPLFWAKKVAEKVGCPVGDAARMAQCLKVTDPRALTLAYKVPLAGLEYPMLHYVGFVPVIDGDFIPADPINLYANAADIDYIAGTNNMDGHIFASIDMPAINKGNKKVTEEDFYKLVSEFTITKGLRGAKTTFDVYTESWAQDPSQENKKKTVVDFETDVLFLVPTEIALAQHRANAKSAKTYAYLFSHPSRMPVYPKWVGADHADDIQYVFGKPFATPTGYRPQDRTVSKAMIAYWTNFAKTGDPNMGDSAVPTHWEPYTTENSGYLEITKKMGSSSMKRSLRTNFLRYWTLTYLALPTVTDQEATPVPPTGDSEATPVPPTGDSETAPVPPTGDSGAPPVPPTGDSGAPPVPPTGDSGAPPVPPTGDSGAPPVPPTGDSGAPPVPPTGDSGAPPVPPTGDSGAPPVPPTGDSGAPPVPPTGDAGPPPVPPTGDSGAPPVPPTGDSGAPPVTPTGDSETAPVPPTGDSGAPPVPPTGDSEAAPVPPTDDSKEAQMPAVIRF
# Method: (§1) A patient with suboptimal HDL cholesterol level, which is not the result of a known genetic or other predisposing condition, is prescribed (1,5-dimethylhexyl)carbamic acid 4-phenoxyphenyl ester to raise serum HDL levels. The patient takes a daily oral dose of 1 mg per kg body of weight for a period of two weeks, after which serum cholesterol in HDL, LDL, and VLDL is again measured. It is determined that HDL cholesterol has increased by 15-20%, that the ratio of HDL:LDL has increased, and that VLDL is decreased, such that risk for cardiovascular disease is reduced.
# as §1, with “4-methyl-1-piperidinecarboxylic” for “(1,5-dimethylhexyl)carbamic”
# CEL [2] = biological target: T2, CEL (Mus musculus, UniProt Q64285); assay: Daily fecal cholesterol (neutral sterol) excretion in mice fed CEL inhibitor in chow (reverse cholesterol transport); type: in vivo; conditions: C57BL/6 mice
# T2 construct: from tissue; host or cells: whole animal: wild-type C57BL/6 mice (CEL made by pancreas and liver)
# T2 sequence (Q64285 21-599): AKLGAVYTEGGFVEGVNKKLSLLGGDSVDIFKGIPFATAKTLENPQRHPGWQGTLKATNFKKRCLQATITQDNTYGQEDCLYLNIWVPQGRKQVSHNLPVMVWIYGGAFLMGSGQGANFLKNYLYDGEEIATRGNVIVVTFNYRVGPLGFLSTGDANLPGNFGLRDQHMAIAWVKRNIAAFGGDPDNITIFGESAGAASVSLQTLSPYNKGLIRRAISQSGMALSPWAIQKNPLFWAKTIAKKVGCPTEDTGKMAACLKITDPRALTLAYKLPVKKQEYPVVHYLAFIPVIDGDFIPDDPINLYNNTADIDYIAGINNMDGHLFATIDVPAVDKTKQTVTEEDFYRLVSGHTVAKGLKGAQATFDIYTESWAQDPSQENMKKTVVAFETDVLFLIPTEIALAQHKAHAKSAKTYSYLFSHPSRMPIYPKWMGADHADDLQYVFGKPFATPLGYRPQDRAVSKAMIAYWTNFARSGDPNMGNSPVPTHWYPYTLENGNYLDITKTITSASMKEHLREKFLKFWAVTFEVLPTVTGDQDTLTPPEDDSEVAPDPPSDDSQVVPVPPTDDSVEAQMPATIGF
# Method: FIG. 8. Excretion of neutral sterol mass is increased by feeding CEL inhibitor (1,5-dimethylhexyl)carbamic acid 4-phenoxyphenyl ester to normal C57BL/6 mice. Inhibitor was mixed with standard rodent chow and fed to mice after baseline excretion was determined. Sterol excretion was again determined after 2 weeks of inhibitor treatment. The change from baseline is plotted for each mouse (n=13).
# Animals were individually housed in cages fitted with a wire platform with full access to food and water. After a 1 or 2 day acclimation period, feces were collected for 72 h and sterols were quantitated using a variation of the method described by Post et al. (Post, et al., Increased fecal bile acid excretion in transgenic mice with elevated expression of human phospholipid transfer protein. Arterioscler. Thromb. Vasc. Biol. 23:892-97 (2003)). After being dried and weighed, fecal material was ground to a fine powder. 5α-cholestane (40 μg) and [24-^14C]-taurocholic acid (0.02 μCi) were added to 0.5 g of the ground fecal material as internal standards for extraction efficiency of neutral and acidic sterols, respectively. The fecal material plus standards were suspended in 10 volumes of alkaline methanol (0.2 M NaOH in 80% methanol), incubated at 80° C. for 2 hr, and neutral sterols were separated by 3 extractions with equal volumes of petroleum ether. The combined organic fractions were evaporated under nitrogen, resuspended in hexane, and a portion was used to measure neutral sterols by gas chromatography (Shimadzu Scientific Instruments). Data reported represent the sum of areas under the curves for cholesterol, coprostanol, and lathosterol. The aqueous residue from above was filtered, washed, dried, resuspended in water, and applied to prewashed C18 Bond Elut columns (Varian Inc., Palo Alto, Calif.). Bile acids were eluted from the columns with methanol, concentrated and quantitated by colorimetric assay (Trinity Biotech). To measure fecal sterol esters, ground fecal samples were resuspended in water, extracted with petroleum ether, concentrated, resolved by TLC as above and visualized at 80° C. after staining with 10% phosphomolybdic acid in ethanol, or bands were scraped and quantitated by scintillation spectrometry.
# The effect of (1,5-dimethylhexyl)carbamic acid 4-phenoxyphenyl ester on cholesterol disposal has been measured in C57BL/6 mice. Baseline daily fecal cholesterol disposal by chow-fed mice was measured over 3 days using established methods. Thereafter, the same mice were fed a chow diet to which had been added 1 milligram of (1,5-dimethylhexyl)carbamic acid 4-phenoxyphenyl ester per gram of food. The average body weight of the mice was 24 grams. Mice of this size are known to eat between 3.5 and 4 grams of chow per day. Thus, the amount of inhibitor consumed was between 3.5 and 4.0 milligrams per mouse per day or between 146 and 167 milligrams per kilogram of bodyweight. After eating inhibitor-containing diet for 2 weeks, daily fecal cholesterol excretion was again measured over 3 days. […] The average excretion at baseline was 48.9±11.3 micrograms per day per gram bodyweight (range 28.6 to 71.8), which increased to 62.1±10.4 micrograms per day per gram bodyweight (range 45.3 to 89.1) after treatment. The average change per mouse was +33.0% (range −19.3 to +95.4), with 10 of the 13 mice responding positively, 1 showing no change and 2 responding negatively).
Structure (SMILES),VLDL (CEL [1]),increase in HDL cholesterol (CEL [1]),ratio of HDL:LDL (CEL [1]),"average change per mouse in cholesterol excretion from baseline (CEL [2]; 1 mg/g chow, 2 weeks, n=13, range −19.3 to +95.4)","mice responding positively (increased cholesterol excretion) (CEL [2]; 1 mg/g chow, 2 weeks, 1 no change, 2 negative)","cholesterol excretion, paired data analysis vs baseline (CEL [2]; 1 mg/g chow, 2 weeks, P=0.01)","average increase in cholesterol excretion over baseline, of those that responded positively (CEL [2]; 1 mg/g chow, 2 weeks, positive responders only) [%]","average fecal cholesterol excretion after treatment (CEL [2]; 1 milligram inhibitor per gram chow for 2 weeks, n=13, baseline 48.9±11.3)"
"CC(C)CCCC(C)NC(=O)Oc1ccc(Oc2ccccc2)cc1 (centres unmarked) [(1,5-dimethylhexyl)carbamic acid 4-phenoxyphenyl ester]",decreased,15-20%,increased,+33.0%,10 of the 13,significantly increased,46.7,62.1±10.4 micrograms per day per gram bodyweight
CC1CCN(C(=O)Oc2ccc(Oc3ccccc3)cc2)CC1 [4-methyl-1-piperidinecarboxylic acid 4-phenoxyphenyl ester],decreased,15-20%,increased,,,,,
